Article PMC10324113, “Gut microbiome modulates tacrolimus pharmacokinetics through the transcriptional regulation of ABCB1” (Microbiome, 2023)
Blank lines part the entries; values can stand above or below the compound they belong to.

How the values were obtained:
[1] = Stability of the TAC suspension for gavage; assay type: physicochemical; details: suspension in water and propylene glycol (90:10), kept at 4 °C
[2] = Tacrolimus whole blood pharmacokinetics after oral gavage in mice (HPLC-MS/MS, population PK model); details: for AUC: TAC AUC (population PK-derived)
Experimental: TAC was suspended in a mix of water and propylene glycol (90:10), 3 to 5 days before the first administration and kept at 4 °C. […] TAC was first dissolved in propylene glycol, then the water was added. The suspension was homogenized using an ultrasonic homogenizer 3 times for 15 s (QSonica Q700 sonicator, QSonica LLC., USA). TAC concentration was always checked before the first and after the last gavage to control for the dose. TAC or the vehicle was administered once a day (always at the same period) by oral gavage. A dose of 3 mg of TAC/kg of body weight was administered for 5 days, except in the dose determination study where different escalating doses (from 0.1 to 10 mg/kg of body weight) were tested (4 days of treatment).
It was administered via drinking water and renewed every other day.
Zosuquidar (ZSQ) was suspended in aqueous 0.5% methylcellulose (based on Matsuda et al.). A single dose of 30 mg/kg of body weight was administered 15 min before last TAC administration by oral gavage (based on Kono et al.).
Fresh faeces were collected and quickly frozen on dry ice before storage at − 80 °C until further analysis or use. Whole blood samples were collected from the tail of awake freely moving mice, at various time points (ranging from 1 to 24 h = T0, after last gavage). The blood sampling strategy used to generate the concentration–time curve of TAC blood levels in mice is detailed in the Supporting information. Before necropsy, mice were fasted for minimum 4 h and anesthetized with ketamine-xylazine or isoflurane. Hepatic and intestinal tissues were quickly collected and frozen in liquid nitrogen before storage at − 80 °C until further analysis.
Blood quantification of TAC was performed on a high-performance liquid chromatography-tandem mass spectrometry (HPLC–MS/MS) method, as already described elsewhere and further optimized for the small amounts of blood available in mouse PK studies. Briefly, the Agilent HPLC 1290 Infinity system is coupled to the 6460 Triple Quadrupole instrument. Fifty microlitres of whole blood was pre-treated and vortexed with 50 μl zinc sulfate 0.1 M, and 125 μl internal standard (ascomycin, 5 μg/L) in methanol. Samples were sonicated for 5 min, before 5 min of centrifugation at 13,500 rpm. Forty microlitres of the supernatant was injected into the system. The precolumn used was the 10 × 4 mm 3 μm Mercury Phenomenex, and the analytical column was the 4.6 × 50 mm 1.8 μm Agilent Zorbax Eclipse XDB C18, maintained at 60 °C. The mobile phase of pump 1 contained a mixture of H2O/methanol (40/60%), and pump 2 2 mM NH4^+ acetate, and aqueous 0.5% formic acid/ methanol (5/95%). […] The method is fully validated in terms of analytical performance (limit of quantification: 0.5 ng/ml; imprecision < 5%) and ion suppression effects. The laboratory participates to the TAC International Proficiency Testing Scheme (ASI, London, UK).
All data generated in this project (n = 351 PK data) were used to develop a population PK model of TAC in mice at steady-state with an average number of observations per subject of 3.5. Population PK modeling of TAC blood concentrations was performed with MonolixSuite-2020R1 software (Lixoft, France) using the stochastic approximation expectation–maximization (SAEM) algorithm. Between-subject variability (eta) was described using an exponential model and covariance between random effects was investigated. Three error models (i.e. proportional, additive and combined) to describe the residual error were tested. The influence of mouse treatment on PK parameters was also investigated through its association with the eta of PK parameters. Additional information on the building of the population PK model (e.g. the precise description of number of measurements per time points) is provided in the Supporting Information.

[3] = cited from earlier work
gut microbiota = assay: Faecal microbiota composition by 16S rRNA gene sequencing in TAC-treated mice; assay type: in vivo
Experimental: (§1) Genomic DNA was extracted from faeces using a QIAamp DNA Stool Mini Kit (Qiagen, Germany), including a bead-beating step. Absolute quantification of the total bacteria was performed by quantitative polymerase chain reaction (qPCR) using the primers Bacteria Universal P338f ([…]) and P518r ([…]). 16S rRNA gene sequencing and ensuing bioinformatics and biostatistics analyses (including amplicon sequence variants (ASV) identification) were performed as previously described. Full details are provided in the Supporting Information.
To evaluate the potential impact of TAC oral administration on the gut microbiota composition, we compared the faecal bacterial composition of mice treated with TAC (TAC) or with the vehicle (CTL). Faeces were collected at baseline (day 0) and after 2 and 5 days of treatment.
To assess the impact of ATB on the bacterial load, genomic DNA was extracted from faeces using the QIAamp DNA Stool Mini Kit (Qiagen, Germany) according to manufacturer’s instructions, with the addition of a bead-beating step. To assess the impact of TAC on gut microbiota composition, genomic DNA was extracted from faeces following the protocol Q described by Costea et al. This protocol uses a QIAamp DNA Stool Mini Kit (Qiagen, Germany), including a bead-beating step. Treatment with RNAse A was performed (10 mg/ml, Thermo Fisher Scientific, USA). DNA concentration was determined using a NanoDrop 2000 (Thermo Fisher Scientific, USA).
Amplicon sequencing of the microbiome was done at the University of Minnesota Genomics Center. Briefly, the V5-V6 region of the 16S rRNA gene was PCR-enriched using the primer pair V5F_Nextera ([…]) and V6R_Nextera ([…]) in a 25 μl PCR reaction containing 5 μl of template DNA, […], 500 nM of final concentration of primers and 0.025 U/μl of HostStar Taq+ polymerase (Qiagen Germany). PCR-enrichment reactions were conducted as follow, an initial denaturation step at 95°C for 5 min followed by 25 cycles of denaturation (20 s at 98°C), annealing (15 s at 55°C), and elongation (1 min at 72°C), and a final elongation step (5 min at 72°C). Next, the PCR-enriched samples were diluted 1:100 in water for input into library tailing PCR. The PCR reaction was analogous to the one conducted for enrichment except with a KAPA HiFi Hot Start Polymerase concentration of 0.25 U/μl, while the cycling conditions used were as follows: initial denaturation at 95°C for 5 min followed by 10 cycles of denaturation (20 s at 98°C), annealing (15 s at 55°C), and elongation (1 min at 72°C), and a final elongation step (5 min at 72°C). The primers used for tailing are the following: F-indexing primer […][i5][…] and R-indexing primer […][i7][…] GCTCGG, where [i5] and [i7] refer to the index sequence codes used by Illumina. The resulting 10 μl indexing PCR reactions were normalized using a SequalPrep normalization plate according to the manufacturer’s instructions (Life Technologies, USA). 20 μl of each normalized sample was pooled into a trough, and a SpeedVac was used to concentrate the sample pool down to 100 μl. The pool was then cleaned using 1X AMPureXP beads and eluted in 25 μl of nuclease-free water. The final pool was quantitated by QUBIT (Life Technologies, USA) and checked on a Bioanalyzer High-Sensitivity DNA Chip (Agilent Technologies, USA) to ensure correct amplicon size. The final pool was then normalized to 2 nM, denatured with NaOH, diluted to 8 pM in Illumina’s HT1 buffer, spiked with 20% PhiX, and heat denatured at 96°C for 2 minutes immediately prior to loading. A MiSeq 600 cycle v3 kit was used to sequence the pool. Raw sequences can be found in the SRA database (project ID: PRJNA877868).
Subsequent bioinformatics analyses were performed in-house as previously described. Initial quality filtering of the reads was performed with the Illumina Software, yielding an average of 51 929 pass-filter reads per sample. […]

total bacteria = assay: Absolute quantification of total faecal bacteria by qPCR; assay type: in vivo; details: CTL and TAC mice, faeces, up to 5 days
Experimental: as §1
To assess the impact of ATB on the bacterial load, genomic DNA was extracted from faeces using the QIAamp DNA Stool Mini Kit (Qiagen, Germany) according to manufacturer’s instructions, with the addition of a bead-beating step. […] DNA concentration was determined using a NanoDrop 2000 (Thermo Fisher Scientific, USA).
PCR was performed with a QuantStudio3 (Applied Biosystems, USA) using SYBR Green (GoTaq® qPCR mix, Promega, USA) for detection. […] Threshold was manually adjusted to reach the linear range of the log-fluorescent curves and CT values were determined using the QuantStudio software v1.4.3 (Applied Biosystems, USA). Absolute quantification was achieved through the inclusion of a standard curve (performed in duplicate) on each plate generated by diluting DNA from pure culture of L. acidophilus NCFM (five-fold serial dilution). […]

ABCB1 [4] = biological target: T1, ABCB1 (Homo sapiens, UniProt P08183); assay: ABCB1 functionality assay: rhodamine 123 intracellular accumulation in HEK293 recombinant cells; assay type: cell-based; details: 5 μM Rh123, 90 min, PBS condition
T1 construct: expressed in transfected cells
T1 sequence (P08183 whole entry): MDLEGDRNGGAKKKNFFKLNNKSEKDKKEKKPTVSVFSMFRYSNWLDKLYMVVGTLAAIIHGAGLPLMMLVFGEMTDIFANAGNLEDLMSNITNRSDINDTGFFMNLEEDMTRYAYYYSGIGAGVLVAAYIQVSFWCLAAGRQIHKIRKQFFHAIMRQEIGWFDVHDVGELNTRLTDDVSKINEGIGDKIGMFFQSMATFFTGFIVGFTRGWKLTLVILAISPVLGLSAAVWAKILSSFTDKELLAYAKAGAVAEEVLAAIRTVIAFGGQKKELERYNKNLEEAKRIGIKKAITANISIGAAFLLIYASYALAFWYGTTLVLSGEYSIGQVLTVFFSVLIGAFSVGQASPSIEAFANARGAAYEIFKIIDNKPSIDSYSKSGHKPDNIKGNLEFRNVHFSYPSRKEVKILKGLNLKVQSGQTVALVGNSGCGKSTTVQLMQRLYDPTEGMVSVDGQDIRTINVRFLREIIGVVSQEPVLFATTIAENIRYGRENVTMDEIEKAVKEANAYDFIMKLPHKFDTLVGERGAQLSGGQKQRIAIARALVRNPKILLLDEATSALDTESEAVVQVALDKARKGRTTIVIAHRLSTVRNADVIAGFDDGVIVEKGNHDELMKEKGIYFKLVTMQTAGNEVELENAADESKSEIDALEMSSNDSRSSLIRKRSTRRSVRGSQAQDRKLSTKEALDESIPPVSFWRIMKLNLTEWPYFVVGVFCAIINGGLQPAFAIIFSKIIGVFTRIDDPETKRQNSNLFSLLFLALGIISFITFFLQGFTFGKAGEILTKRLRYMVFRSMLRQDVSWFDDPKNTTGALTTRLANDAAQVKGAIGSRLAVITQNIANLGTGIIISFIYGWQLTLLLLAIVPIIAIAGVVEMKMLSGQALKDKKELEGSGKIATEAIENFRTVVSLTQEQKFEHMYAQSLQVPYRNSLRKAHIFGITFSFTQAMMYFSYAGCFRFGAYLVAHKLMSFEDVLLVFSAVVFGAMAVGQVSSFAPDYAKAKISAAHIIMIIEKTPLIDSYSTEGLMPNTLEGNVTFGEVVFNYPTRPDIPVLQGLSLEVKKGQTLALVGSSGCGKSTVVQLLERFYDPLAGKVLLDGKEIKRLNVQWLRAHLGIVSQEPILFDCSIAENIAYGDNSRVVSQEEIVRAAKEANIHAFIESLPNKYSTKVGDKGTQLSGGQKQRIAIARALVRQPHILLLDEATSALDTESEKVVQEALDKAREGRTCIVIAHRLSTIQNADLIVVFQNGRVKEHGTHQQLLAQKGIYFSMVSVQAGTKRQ
Experimental: First, we tested the impact of FW on the intrinsic ABCB1 efflux functionality. The intracellular accumulation of rhodamine 123 (Rh123), a fluorescent-specific substrate of ABCB1 [39, 40], was performed in HEK293 recombinant cells. Rh123 accumulation was compared between control cells (Control plasmid) expressing low basal levels of ABCB1 and stably transfected cells overexpressing ABCB1 (ABCB1 plasmid), pre-exposed or not to FW for 15 min (Fig. 8A).
Briefly, HEK293 cells were transfected with a plasmid encoding for ABCB1 (ABCB1 plasmid) or an empty vector (control plasmid). HEK293 cells feature low endogenous levels of expression of ABCB1, ensuring that all ABCB1 expression originates from the transfection process. […] Finally, the cells were washed with buffer and resuspended before being analysed using a BD FACSVerse flow cytometer (for characterization) or BD FACSAria III (for cell sorting) and the BD FACSuite software (BD Bioscience, USA). […]
One day before the experiment, 9*10^4 cells (HEK293) were plated in poly-L-lysine-coated black 96-well plates in complete medium. […] Finally, the intracellular fluorescence of Rh123 was analysed by a fluorimeter SpectraMax i3x (Molecular Devices, USA); excitation wavelength was set at 485 nm and emission at 530 nm.

ABCB1 [5] = tested on: ABCB1; parameters: method as in PMID 11172691; details: cited from earlier work
CYP3A = tested on: CYP3A; parameters: method as in PMID 11172691; details: in vitro; cited from earlier work
[6] = mice, oral gavage, steady-state, mono-compartmental population PK model, mean
[7] = 5 days TAC oral vs vehicle-treated mice

stability of the solution validated for [1]: 15 days | increase in TAC whole blood exposure ([2]; ATB-treated vs control mice, both under ZSQ supplementation): 75% | reduction in TAC whole blood exposure ([2]; mice with lower intestinal microbial load due to antibiotics vs controls): 33% | time of absorption peak after the last administration ([2]; mice, 3 mg/kg oral, steady-state concentration-time curve): 2 h | Ka (absorption rate constant) [2, 6]: 1.20 h⁻¹ | V (volume of distribution) [2, 6]: 1.88 L | Cl/F (oral clearance) ([2]; mice, oral gavage, steady-state, mono-compartmental population PK model, mean, n = 351 blood samples in 99 mice): 0.32 L/h | concentration at 2 h ([2]; mouse, whole blood, po, 3 mg/kg): 39.1 ng/mL | AUC ([2]; mouse, whole blood, po, 3 mg/kg, ATB-treated mice (TAC + ATB), 3 mg/kg oral 5 days, steady-state): 131 ng·h/mL | AUC ([2]; mouse, whole blood, po, 3 mg/kg, mice treated with TAC solely, 3 mg/kg oral 5 days, steady-state): 195 ng·h/mL | AUC ([2]; mouse, whole blood, po, TAC + ZSQ + ATB mice, ZSQ 30 mg/kg oral 15 min before last TAC administration): 618 ng·h/mL | AUC ([2]; mouse, whole blood, po, TAC + ZSQ mice, ZSQ 30 mg/kg oral 15 min before last TAC administration): 354 ng·h/mL
SMILES: C=CC[C@@H]1/C=C(\C)C[C@H](C)C[C@H](OC)[C@H]2O[C@@](O)(C(=O)C(=O)N3CCCC[C@H]3C(=O)O[C@H](/C(C)=C/[C@@H]3CC[C@@H](O)[C@H](OC)C3)[C@H](C)[C@@H](O)CC1=O)[C@H](C)C[C@@H]2OC [TAC, tacrolimus]
parent drug recovered unchanged in the faeces or urine [3]: less than 0.5% | time of absorption peak after drug intake ([3]; human population): around 2 h | time to steady-state (5 times the half-life) ([3]; human): ~ 60 h | evenness of the gut microbiota (Simpson's and Heip's evenness indexes) (gut microbiota; [7]): significant reduction | indexes combining richness and evenness (Shannon and Simpson indexes) (gut microbiota; [7]): significantly reduced | richness (Chao1 and Observed ASV indexes) (gut microbiota; [7]): did not affect | relative abundance of Clostridiales incertae sedis XIII (gut microbiota; family level, 5 days TAC): decrease | relative abundance of Lachnospiraceae (gut microbiota; family level, 5 days TAC): decrease | relative abundance of Rikenellaceae (gut microbiota; family level, 5 days TAC): increase | relative abundance of Ruminococcaceae (gut microbiota; family level, 5 days TAC): decrease | relative abundance of Verrucomicrobiaceae (gut microbiota; family level, 5 days TAC): increase | relative abundance of Akkermansia (gut microbiota; genus level, 5 days TAC): increased | relative abundance of Alistipes (gut microbiota; genus level, 5 days TAC): increased | relative abundance of Oscillibacter (gut microbiota; genus level, 5 days TAC): decreased | relative abundance of Ruminococcus 2 (gut microbiota; genus level, 5 days TAC): decreased | variability in the microbiota dataset accounted for by TAC administration (gut microbiota; genus level, after 5 days of treatment, PERMANOVA p < 0.05): 15% | change in total bacterial load over time (total bacteria): did not observe any significant change

intracellular accumulation in ABCB1 overexpressing cells vs control cells (ABCB1 [4]): accumulated significantly less
SMILES: COC(=O)c1ccccc1-c1c2ccc(=N)cc-2oc2cc(N)ccc12 [Rh123, rhodamine 123]

SMILES: C=CCC1C=C(C)CC(C)CC(OC)C2OC(O)(C(C)CC2OC)C(O)C(=O)N2CCCCC2C(=O)OC(C(C)=CC2CCC(O)C(OC)C2)C(C)C(O)CC1=O (centres unmarked) [bacteria-derived TAC metabolite]
bacteria-derived TAC metabolite as share of the parent drug ([3]; human, in vivo): ≤ 5 % of the parent drug

SMILES: O[C@@H](COc1cccc2ncccc12)CN1CCN([C@@H]2c3ccccc3[C@@H]3[C@H](c4ccccc42)C3(F)F)CC1 [ZSQ, Zosuquidar]
change in TAC AUC in comparison to TAC solely group ([2]; mouse, in vivo): significant increase | affinity for CYP3A lower than for ABCB1 (ABCB1 [5]; CYP3A vs ABCB1): more than 60 times | Ki (ABCB1 [5]): ~59 nM | Ki (CYP3A): ~3800 nM
